This passage reports IC50 results from patent US20060084688A1, “Aromatic sulfone hydroxamic acid metalloprotease inhibitor” (priority 1997, published 2006).

Assay in all cases: biochemical
Common to all, as to conditions: Inhibition Table B

The target of one experiment is recombinant human MMP-13 (Homo sapiens, UniProt P45452).
The next experiment addresses T1, recombinant human MMP-1 (Homo sapiens, UniProt P03956).
T1 construct: made in house; host or cells: transfected HT-1080 cells
T1 sequence (P03956 100-469): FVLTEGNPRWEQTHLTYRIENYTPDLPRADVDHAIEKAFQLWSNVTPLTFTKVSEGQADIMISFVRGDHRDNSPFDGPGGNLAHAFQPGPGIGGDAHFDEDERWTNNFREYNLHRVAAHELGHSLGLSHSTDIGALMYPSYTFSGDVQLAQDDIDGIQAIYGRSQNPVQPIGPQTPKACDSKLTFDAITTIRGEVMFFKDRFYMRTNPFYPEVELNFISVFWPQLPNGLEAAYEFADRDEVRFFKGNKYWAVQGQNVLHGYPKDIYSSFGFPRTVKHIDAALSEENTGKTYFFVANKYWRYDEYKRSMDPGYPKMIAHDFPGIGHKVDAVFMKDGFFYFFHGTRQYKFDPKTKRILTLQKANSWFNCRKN

The target in a further experiment is T2, recombinant human MMP-2 (Homo sapiens, UniProt P08253).
T2 sequence (P08253 110-660): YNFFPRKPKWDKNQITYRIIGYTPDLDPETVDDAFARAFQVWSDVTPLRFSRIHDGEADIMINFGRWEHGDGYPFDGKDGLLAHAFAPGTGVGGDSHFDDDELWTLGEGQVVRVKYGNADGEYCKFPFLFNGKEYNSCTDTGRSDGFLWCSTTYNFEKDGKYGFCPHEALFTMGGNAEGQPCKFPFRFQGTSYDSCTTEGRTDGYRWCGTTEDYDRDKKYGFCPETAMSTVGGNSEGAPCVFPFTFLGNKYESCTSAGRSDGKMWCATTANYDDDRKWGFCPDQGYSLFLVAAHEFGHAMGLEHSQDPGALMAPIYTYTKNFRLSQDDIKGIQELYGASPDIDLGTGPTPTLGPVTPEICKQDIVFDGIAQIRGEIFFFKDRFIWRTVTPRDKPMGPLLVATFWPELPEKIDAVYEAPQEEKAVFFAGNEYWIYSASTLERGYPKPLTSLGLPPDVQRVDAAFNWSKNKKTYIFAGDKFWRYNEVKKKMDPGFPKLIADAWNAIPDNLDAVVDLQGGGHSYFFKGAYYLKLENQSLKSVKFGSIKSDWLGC

One may read the IC50 as the concentration that inhibits the measured activity by half. On to `CN1CCN(C(=O)C2CCCN(c3ccc(S(=O)(=O)C4(C(=O)NO)CCOCC4)cc3)C2)CC1` (stereo not drawn) [Example 157], for which the IC50 is 0.09 µM at recombinant human MMP-13, over 10 µM at recombinant human MMP-1 and 6 µM on recombinant human MMP-2.
In the same order, the values of `O=C(C1CCCN(c2ccc(S(=O)(=O)C3(C(=O)NO)CCOCC3)cc2)C1)N1CCNCC1` (stereo not drawn) [Example 158] are 0.08 µM, over 10 µM and 5 µM.
`CCOC(=O)C1CCN(C(=O)C2CCCN(c3ccc(S(=O)(=O)C4(C(=O)NO)CCOCC4)cc3)C2)CC1` (stereo not drawn) [Example 159]: the values for the half-maximal inhibitory concentration (IC50) on recombinant human MMP-13, on recombinant human MMP-1 and on recombinant human MMP-2 were 0.0156 µM, over 10 µM and 2.5 µM, respectively.
In the same order, the values of `CCOC(=O)C1CCCN(C(=O)C2CCCN(c3ccc(S(=O)(=O)C4(C(=O)NO)CCOCC4)cc3)C2)C1` (stereo not drawn) [Example 160] are 0.0337 µM, over 10 µM and 4.7 µM.
In the same order, the values of `CCOC(=O)C1CCCCN1C(=O)C1CCCN(c2ccc(S(=O)(=O)C3(C(=O)NO)CCOCC3)cc2)C1` (stereo not drawn) [Example 161] are over 0.1 µM, over 10 µM and over 1 µM.
In the same order, the values of `O=C(C1CCCN(c2ccc(S(=O)(=O)C3(C(=O)NO)CCOCC3)cc2)C1)N1CCCCCC1` (stereo not drawn) [Example 162] are over 0.1 µM, over 10 µM and over 1 µM.
Consider `CC1(C)C[C@@H]2C[C@@](C)(CN2C(=O)C2CCCN(c3ccc(S(=O)(=O)C4(C(=O)NO)CCOCC4)cc3)C2)C1` (stereo partly drawn) [Example 163], for which the figures for the IC50 at recombinant human MMP-13, on recombinant human MMP-1 and on recombinant human MMP-2 were 0.0774 µM, over 10 µM and 4 µM, respectively.
The matching figures for `CC1(C)C[C@@H]2C[C@@](C)(CN2C(=O)C2CCN(c3ccc(S(=O)(=O)C4(C(=O)NO)CCOCC4)cc3)CC2)C1` [Example 164]: 0.02 µM, over 10 µM and 1.75 µM.
In the same order, the values of `O=C(C1CCN(c2ccc(S(=O)(=O)C3(C(=O)NO)CCOCC3)cc2)CC1)N1CCCCCC1` [Example 165] are 0.0136 µM, over 10 µM and 0.33 µM.
The matching figures for `O=C(C1CCCN(c2ccc(S(=O)(=O)C3(C(=O)NO)CCOCC3)cc2)C1)N1CCC(O)C1` (stereo not drawn) [Example 166]: over 0.1 µM, over 10 µM and over 1 µM.
As for `CN(C)[C@H]1CCN(C(=O)C2CCCN(c3ccc(S(=O)(=O)C4(C(=O)NO)CCOCC4)cc3)C2)C1` (stereo partly drawn) [Example 167], the IC50 was over 0.1 µM on recombinant human MMP-13, over 10 µM at recombinant human MMP-1 and over 1 µM on recombinant human MMP-2.
In the same order, the values of `N[C@H]1CCN(C(=O)C2CCCN(c3ccc(S(=O)(=O)C4(C(=O)NO)CCOCC4)cc3)C2)C1` (stereo partly drawn) [Example 168] are over 0.1 µM, over 10 µM and over 1 µM.
The matching figures for `O=C(C1CCCN(c2ccc(S(=O)(=O)C3(C(=O)NO)CCOCC3)cc2)C1)N1CCC(N2CCCC2)CC1` (stereo not drawn) [Example 171]: over 0.1 µM, over 10 µM and over 1 µM.
The matching figures for `O=C(C1CCCN(c2ccc(S(=O)(=O)C3(C(=O)NO)CCOCC3)cc2)C1)N1CCCC1` (stereo not drawn) [Example 172]: over 0.1 µM, over 10 µM and over 1 µM.
As to `O=C(C1CCN(c2ccc(S(=O)(=O)C3(C(=O)NO)CCOCC3)cc2)CC1)N1CCC(O)C1` (stereo not drawn) [Example 173], the IC50 on recombinant human MMP-13 was over 0.1 µM; on recombinant human MMP-1, over 10 µM; at recombinant human MMP-2 it was over 1 µM.
Regarding `CN(C)[C@H]1CCN(C(=O)C2CCN(c3ccc(S(=O)(=O)C4(C(=O)NO)CCOCC4)cc3)CC2)C1` [Example 174], the half-inhibitory concentration (IC50) on recombinant human MMP-13 was over 0.1 µM; on recombinant human MMP-1, 8 µM; at recombinant human MMP-2, 0.9 µM.
The matching figures for `O=C(C1CCN(c2ccc(S(=O)(=O)C3(C(=O)NO)CCOCC3)cc2)CC1)N1CCCC2CCCCC21` (stereo not drawn) [Example 177]: 0.021 µM, over 10 µM and 0.4 µM.
The matching figures for `O=C(C1CCN(c2ccc(S(=O)(=O)C3(C(=O)NO)CCOCC3)cc2)CC1)N1CCC(N2CCCC2)CC1` [Example 178]: over 0.1 µM, over 10 µM and 0.54 µM.
In the same order, the values of `C=CCN(CC=C)C(=O)C1CCN(c2ccc(S(=O)(=O)C3(C(=O)NO)CCOCC3)cc2)CC1` [Example 182] are 0.004 µM, over 10 µM and 0.24 µM.
Consider `CN(C)CCCN(CCCN(C)C)C(=O)C1CCN(c2ccc(S(=O)(=O)C3(C(=O)NO)CCOCC3)cc2)CC1` [Example 183], for which the IC50 at recombinant human MMP-13 is 0.04 µM; on recombinant human MMP-1 it was over 10 µM; at recombinant human MMP-2, 0.288 µM.
The matching figures for `CC(C)NC(=O)C1CCN(c2ccc(S(=O)(=O)C3(C(=O)NO)CCOCC3)cc2)CC1` [Example 184]: 0.007 µM, over 10 µM and 0.094 µM.
Turning to `O=C(NN1CCOCC1)C1CCN(c2ccc(S(=O)(=O)C3(C(=O)NO)CCOCC3)cc2)CC1` [Example 185], the IC50 was 0.0175 µM on recombinant human MMP-13, over 10 µM at recombinant human MMP-1 and 0.21 µM at recombinant human MMP-2.
`O=C(NCc1cccnc1)C1CCN(c2ccc(S(=O)(=O)C3(C(=O)NO)CCOCC3)cc2)CC1` [Example 186]: the half-inhibitory concentration (IC50) at recombinant human MMP-13 is 0.01 µM; at recombinant human MMP-1, over 10 µM; at recombinant human MMP-2, 0.12 µM.
Consider `O=C(NC1CCCCC1)C1CCN(c2ccc(S(=O)(=O)C3(C(=O)NO)CCOCC3)cc2)CC1` [Example 187], for which the IC50 at recombinant human MMP-13 is 0.0121 µM; at recombinant human MMP-1, over 10 µM; on recombinant human MMP-2, 0.29 µM.
The matching figures for `O=C(NC1CCc2ccccc21)C1CCN(c2ccc(S(=O)(=O)C3(C(=O)NO)CCOCC3)cc2)CC1` (stereo not drawn) [Example 188]: 0.0094 µM, over 10 µM and 0.35 µM.
Turning to `O=C(NCc1cccs1)C1CCN(c2ccc(S(=O)(=O)C3(C(=O)NO)CCOCC3)cc2)CC1` [Example 189], the IC50 on recombinant human MMP-13 turned out to be 0.008 µM; on recombinant human MMP-1, 3.7 µM; at recombinant human MMP-2, 0.094 µM.
In the same order, the values of `CC1CCN(C(=O)C2CCN(c3ccc(S(=O)(=O)C4(C(=O)NO)CCOCC4)cc3)CC2)CC1` [Example 190] are 0.0106 µM, over 10 µM and 0.22 µM.
In the same order, the values of `O=C(C1CCN(c2ccc(S(=O)(=O)C3(C(=O)NO)CCOCC3)cc2)CC1)N1CCC(Cc2ccccc2)CC1` [Example 191] are 0.004 µM, over 10 µM and 0.35 µM.
The matching figures for `O=C(C1CCN(c2ccc(S(=O)(=O)C3(C(=O)NO)CCOCC3)cc2)CC1)N1CCC(c2ccccc2)CC1` [Example 192]: 0.01 µM, over 10 µM and 0.33 µM.
`O=C(C1CCN(c2ccc(S(=O)(=O)C3(C(=O)NO)CCOCC3)cc2)CC1)N1CCC(O)(Cc2ccccc2)CC1` [Example 193]: the concentration for half-maximal inhibition (IC50) was 0.006 µM on recombinant human MMP-13, over 10 µM on recombinant human MMP-1 and 0.39 µM at recombinant human MMP-2.
`O=C(NCc1ccccn1)C1CCN(c2ccc(S(=O)(=O)C3(C(=O)NO)CCOCC3)cc2)CC1` [Example 196]: the concentration for half-maximal inhibition (IC50) was 0.025 µM at recombinant human MMP-13, over 10 µM on recombinant human MMP-1 and 0.24 µM on recombinant human MMP-2.
As for `O=C(C1CCN(c2ccc(S(=O)(=O)C3(C(=O)NO)CCOCC3)cc2)CC1)N(Cc1ccccc1)Cc1ccccc1` [Example 198], the half-maximal inhibitory concentration (IC50) was 0.0145 µM at recombinant human MMP-13, over 10 µM at recombinant human MMP-1 and 0.27 µM at recombinant human MMP-2.
In the same order, the values of `O=C(C1CCN(c2ccc(S(=O)(=O)C3(C(=O)NO)CCOCC3)cc2)CC1)N1CCc2ccccc2C1` [Example 199] are 0.0014 µM, over 10 µM and 0.155 µM.
Take `O=C(C1CCCCCC1)N1CCN(c2ccc(S(=O)(=O)C3(C(=O)NO)CCOCC3)cc2)CC1` [Example 202]: the IC50 at recombinant human MMP-13 was 0.00915 µM; at recombinant human MMP-1, over 10 µM; on recombinant human MMP-2 it was 0.054 µM.
In the same order, the values of `O=C([C@@H]1CCCN1)N1CCN(c2ccc(S(=O)(=O)C3(C(=O)NO)CCOCC3)cc2)CC1` [Example 203] are 0.03 µM, 8.5 µM and 0.031 µM.
The matching figures for `CC(C)[C@H](N)C(=O)N1CCN(c2ccc(S(=O)(=O)C3(C(=O)NO)CCOCC3)cc2)CC1` [Example 204]: 0.0271 µM, over 10 µM and 0.025 µM.
The matching figures for `O=C(Oc1ccc([N+](=O)[O-])cc1)N1CCN(c2ccc(S(=O)(=O)C3(C(=O)NO)CCOCC3)cc2)CC1` [Example 205]: 0.002 µM, 7.3 µM and 0.0127 µM.
